Columns and labels:
α2-KD A156T (AT) mutant = biological target: T1, α2-KD A156T (AT) mutant (Homo sapiens, UniProt P54646, A156T); test: Activation and phosphorylation of unphosphorylated α2-KD AT mutant by LKB1; format: biochemical
T1 construct: amplifying residues 1-310 with 5' BamH1 and 3' Xho1 sites; made in house; host or cells: bacteria
Description: (B) Effect of ATP concentration on kinase activity of α2-KD in the presence of increasing concentrations of SU6656. Results (mean, n = 2) were fitted to the equation Y= (Vmax × X)/(Km × (1 + I/Ki) + X), where Y is the activity, X is the ATP concentration, I is the concentration of SU6656, and Ki is the inhibitory constant for SU6656. […] (D and E) Effect of increasing concentrations of SU6656 on activity (D) and Thr172 phosphorylation (E) induced by LKB1 with unphosphorylated α2-KD (WT/AT mutant). Results in (D) are mean ± SEM (n = 3); and were fitted to same equation as Figure 4C. […] See also Figure S3. (F) Effect of AMP (2 mM) and SU6656 on inactivation of AMPK by PP2Cα in the presence of 5 mM ATP. […] (G) Effects of AMP or SU6656 on activation (top) and Thr172 phosphorylation (bottom) by LKB1 of AMPK-γ1 complexes expressed in HeLa cells. FLAG-tagged AMPK-γ1, either wild-type (WT) or R299G mutant (RG), was expressed in HeLa cells and AMPK complexes precipitated using anti-FLAG antibody. The complexes (which have low basal phosphorylation due to lack of LKB1 in HeLa cells) were incubated with or without a limiting amount of LKB1, AMP (200 μM) or SU6656 (3 μM) for 10 min and AMPK activity determined.
We next used unphosphorylated α2-KD and tested the effect of SU6656 on its activation and phosphorylation by LKB1.

[1] = test system: AMPK-related kinases SIK1, SIK2, SIK3, SNARK, MARK2/3 and MARK4; test: AMPK-related kinase activity in HeLa cells stably expressing LKB1; format: cell-based, human; conditions: HeLa cells expressing LKB1, 100 μM, 1 hr
Protocol: Figure 1 SU6656 Activates AMPK but Not AMPK-Related Kinases (A) HEK293 cells were incubated with the indicated concentrations of SU6656 or berberine (300 μM) for 1 hr; total AMPK activity was assayed in immunoprecipitates (top; mean ± SEM, n = 4), and phosphorylation of AMPK (Thr172), ACC (Ser80), and Raptor (Ser792) analyzed by western blotting (bottom; n = 2). (B) HEK293 cells were incubated with 100 μM SU6656 (1 hr), AMPK complexes containing α1, α2, β1, and β2 immunoprecipitated using isoform-specific antibodies, and AMPK activity measured (mean ± SEM, n = 4). (C) HeLa cells stably expressing LKB1 ([Fogarty et al., 2010]) were incubated with 100 μM SU6656 for 1 hr, AMPK or individual ARKs immunoprecipitated, and kinase assays carried out (antibodies that distinguish MARK2/MARK3 were not available, so they were assayed together). Results are means ± SEM (n = 2). In all panels, asterisks indicate significant differences from controls without SU6656. *p < 0.05, **p < 0.01, ****p < 0.0001. […]

AMPK = AMPK activation in HeLa cells transfected with GFP-LKB1 WT, FF or FFF mutants; format: cell-based, human; conditions: HeLa cells expressing GFP-LKB1 WT, not with GFP control
Protocol: (§1) Top: AMPK activity (mean ± SEM, n = 4); bottom: western blots showing phosphorylation of Thr172 on AMPK, and of ERK1/2, in cells treated with DMSO (control), SU6656 (100 μM), or PP2 (100 nM) (n = 2). (B) As (A), but in SYF cells. (C) HeLa cells were transfected with DNAs encoding GFP alone, or GFP fused to WT, Y261F/Y365F (FF), or Y36F/Y261F/Y365F (FFF) mutants of LKB1; cells were treated with increasing concentrations of SU6656 for 1 hr and AMPK activity determined (mean ± SEM, n = 4). See also Figure S1. (D) HEK293 cells were transfected with DNAs encoding FLAG-tagged AMPK-α2 with or without a Y436F mutation. Cells were incubated with DMSO (control), 100 μM SU6656, 10 mM phenformin, or 10 μM A23187 for 1 hr; AMPK complexes were immunoprecipitated using anti-FLAG antibody and assayed. The top panels show kinase activities (mean ± SD, n = 3); the bottom panels show blots from the same experiment (n = 2). In all panels, asterisks indicate significant differences from DMSO controls; in (D), there were no significant differences between the WT and Y463F mutant. **p < 0.01, ****p < 0.0001.
We next transiently transfected DNAs encoding GFP, or GFP-tagged wild-type (WT), Y261F/Y365F (FF), or Y36F/Y261F/Y365F (FFF) mutants of LKB1 into HeLa cells, which lack endogenous LKB1.

[2] = biological target: T2, human AMPK-α2 Y436F mutant (Homo sapiens, UniProt P54646, Y436F); test: AMPK activity of FLAG-tagged Y436F AMPK-α2 expressed in HEK293 cells; format: cell-based; conditions: SU6656 100 μM, phenformin 10 mM, A23187 10 μM, 1 hr
T2 construct: expressed in transfected cells; host or cells: HEK293 (transient transfection)
Protocol: as §1

[3] = biological target: α2 kinase domain (α2-KD, residues 1–310) (Homo sapiens, UniProt P54646); test: biochemical
[4] = set-up: method as in Strumberg et al., 2007; conditions: human clinical trials; ref Strumberg et al., 2007; cited from earlier work

α2 kinase domain (α2-KD, residues 1–310), sequence (P54646 1-310): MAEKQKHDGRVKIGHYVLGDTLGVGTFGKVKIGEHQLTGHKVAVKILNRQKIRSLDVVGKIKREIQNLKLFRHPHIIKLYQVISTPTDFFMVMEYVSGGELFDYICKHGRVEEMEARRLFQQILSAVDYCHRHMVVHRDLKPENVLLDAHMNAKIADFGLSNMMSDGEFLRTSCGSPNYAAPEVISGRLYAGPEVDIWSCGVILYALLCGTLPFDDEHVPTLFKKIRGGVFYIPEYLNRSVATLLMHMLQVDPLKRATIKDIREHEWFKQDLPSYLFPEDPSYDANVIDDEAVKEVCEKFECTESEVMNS
T1 sequence (P54646 1-310 A156T): as the sequence (P54646 1-310) above, with A156T counted along it
T2 sequence (P54646 whole entry Y436F): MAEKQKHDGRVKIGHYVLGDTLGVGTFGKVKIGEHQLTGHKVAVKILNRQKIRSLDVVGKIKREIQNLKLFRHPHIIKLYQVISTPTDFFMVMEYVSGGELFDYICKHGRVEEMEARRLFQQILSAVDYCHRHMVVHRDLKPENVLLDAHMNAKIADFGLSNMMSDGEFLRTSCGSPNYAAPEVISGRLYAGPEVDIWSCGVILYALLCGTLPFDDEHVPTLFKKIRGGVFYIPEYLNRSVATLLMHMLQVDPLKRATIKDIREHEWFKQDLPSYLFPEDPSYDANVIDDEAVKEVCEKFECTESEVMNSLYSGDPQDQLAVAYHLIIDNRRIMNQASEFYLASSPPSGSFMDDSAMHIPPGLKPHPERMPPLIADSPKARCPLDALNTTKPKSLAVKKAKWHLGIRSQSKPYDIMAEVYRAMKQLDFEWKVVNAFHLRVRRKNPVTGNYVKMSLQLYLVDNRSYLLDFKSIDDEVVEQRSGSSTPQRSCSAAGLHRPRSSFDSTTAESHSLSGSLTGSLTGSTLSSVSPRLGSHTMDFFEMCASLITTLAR
T2 sequence (P54619 whole entry partner): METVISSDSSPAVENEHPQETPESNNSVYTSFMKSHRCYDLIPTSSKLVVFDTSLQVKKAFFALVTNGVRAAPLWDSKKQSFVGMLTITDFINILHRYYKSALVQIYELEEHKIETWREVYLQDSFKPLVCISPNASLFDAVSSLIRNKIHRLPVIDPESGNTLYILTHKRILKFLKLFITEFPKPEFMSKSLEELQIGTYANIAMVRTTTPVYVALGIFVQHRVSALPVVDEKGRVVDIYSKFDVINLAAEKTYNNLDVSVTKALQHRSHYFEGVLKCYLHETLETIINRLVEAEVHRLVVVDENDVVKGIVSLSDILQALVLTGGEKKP

Compound | EC50 (α2-KD A156T (AT) mutant) [nM] | activation of α2-KD by LKB1 (α2-KD A156T (AT) mutant) [fold] | activity of AMPK-related kinases (ARKs) [1] | AMPK activation and Thr172 phosphorylation (AMPK) | AMPK activation response with Y436F mutation [2] | IC50 [3] [nM] | Ki [3] [nM] | peak plasma sorafenib [4] [µM]
CN(C)S(=O)(=O)c1ccc2c(c1)/C(=C/c1cc3c([nH]1)CCCC3)C(=O)N2 [SU6656] | 70 | 1.07 | none of the ARKs assayed were activated | equally in cells expressing the WT, FF, or FFF mutants | unaffected by the Y436F mutation | 220 ± 20 | 170 | 
CNC(=O)c1cc(Oc2ccc(NC(=O)Nc3ccc(Cl)c(C(F)(F)F)c3)cc2)ccn1 [sorafenib] |  |  |  |  |  |  |  | 6 to 20
